Data: ChEMBL document CHEMBL4507276 (2021)

Assays:
Conditions in all cases: Compound concentration 1000.0 nM
[1] = molecular target: Serine/threonine-protein kinase 10 (Homo sapiens) (UniProt O94804)
[2] = molecular target: Calcium/calmodulin-dependent protein kinase type 1B (Homo sapiens) (UniProt Q6P2M8)
[3] = molecular target: Leukocyte tyrosine kinase receptor (Homo sapiens) (UniProt P29376)
[4] = molecular target: Serine/threonine-protein kinase B-raf (Homo sapiens) (UniProt P15056)
[5] = molecular target: Cyclin-dependent kinase 17 (Homo sapiens) (UniProt Q00537)
[6] = molecular target: Dual specificity mitogen-activated protein kinase kinase 7 (Homo sapiens) (UniProt O14733)
Chain of Dual specificity mitogen-activated protein kinase kinase 7 (Homo sapiens) (O14733 whole entry): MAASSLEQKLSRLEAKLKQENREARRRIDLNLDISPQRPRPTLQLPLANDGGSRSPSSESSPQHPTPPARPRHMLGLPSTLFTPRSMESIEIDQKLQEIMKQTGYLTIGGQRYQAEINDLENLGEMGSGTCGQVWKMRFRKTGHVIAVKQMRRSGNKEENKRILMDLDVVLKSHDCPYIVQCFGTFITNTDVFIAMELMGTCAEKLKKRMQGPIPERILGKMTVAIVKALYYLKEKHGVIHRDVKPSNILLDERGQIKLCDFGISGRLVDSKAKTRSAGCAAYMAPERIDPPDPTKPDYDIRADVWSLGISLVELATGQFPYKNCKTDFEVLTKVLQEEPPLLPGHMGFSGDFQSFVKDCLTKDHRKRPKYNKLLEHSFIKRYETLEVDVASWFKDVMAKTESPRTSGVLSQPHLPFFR

[7] = molecular target: T1, Serine/threonine-protein kinase Nek9 (Homo sapiens) (UniProt Q8TD19)
T1 sequence (whole entry): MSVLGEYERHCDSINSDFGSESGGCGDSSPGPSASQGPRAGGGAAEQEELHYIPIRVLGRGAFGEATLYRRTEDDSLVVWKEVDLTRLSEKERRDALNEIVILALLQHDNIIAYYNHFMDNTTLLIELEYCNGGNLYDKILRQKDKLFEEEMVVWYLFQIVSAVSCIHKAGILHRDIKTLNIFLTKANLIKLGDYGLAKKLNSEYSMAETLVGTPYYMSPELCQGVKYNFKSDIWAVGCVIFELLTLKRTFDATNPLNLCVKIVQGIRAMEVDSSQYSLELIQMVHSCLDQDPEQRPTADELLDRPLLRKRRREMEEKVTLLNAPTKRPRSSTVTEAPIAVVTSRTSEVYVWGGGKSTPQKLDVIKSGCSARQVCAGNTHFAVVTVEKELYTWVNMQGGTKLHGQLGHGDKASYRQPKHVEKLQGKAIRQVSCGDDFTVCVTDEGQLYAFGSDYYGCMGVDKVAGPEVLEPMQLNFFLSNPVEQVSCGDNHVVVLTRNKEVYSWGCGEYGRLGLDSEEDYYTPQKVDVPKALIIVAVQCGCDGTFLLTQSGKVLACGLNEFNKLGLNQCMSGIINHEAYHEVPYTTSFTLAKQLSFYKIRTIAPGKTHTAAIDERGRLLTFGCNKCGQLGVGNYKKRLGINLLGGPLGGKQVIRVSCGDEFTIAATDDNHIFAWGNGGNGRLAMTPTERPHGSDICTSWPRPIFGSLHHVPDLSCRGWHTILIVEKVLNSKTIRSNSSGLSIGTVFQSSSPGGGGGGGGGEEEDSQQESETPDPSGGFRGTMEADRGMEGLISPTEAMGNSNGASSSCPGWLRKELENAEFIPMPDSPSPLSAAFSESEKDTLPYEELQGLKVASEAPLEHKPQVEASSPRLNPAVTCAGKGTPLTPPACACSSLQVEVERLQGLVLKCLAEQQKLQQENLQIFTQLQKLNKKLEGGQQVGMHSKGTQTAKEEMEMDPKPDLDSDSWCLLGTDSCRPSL

[8] = molecular target: T2, Serine/threonine-protein kinase BRSK1 (Homo sapiens) (UniProt Q8TDC3)
T2 sequence (whole entry): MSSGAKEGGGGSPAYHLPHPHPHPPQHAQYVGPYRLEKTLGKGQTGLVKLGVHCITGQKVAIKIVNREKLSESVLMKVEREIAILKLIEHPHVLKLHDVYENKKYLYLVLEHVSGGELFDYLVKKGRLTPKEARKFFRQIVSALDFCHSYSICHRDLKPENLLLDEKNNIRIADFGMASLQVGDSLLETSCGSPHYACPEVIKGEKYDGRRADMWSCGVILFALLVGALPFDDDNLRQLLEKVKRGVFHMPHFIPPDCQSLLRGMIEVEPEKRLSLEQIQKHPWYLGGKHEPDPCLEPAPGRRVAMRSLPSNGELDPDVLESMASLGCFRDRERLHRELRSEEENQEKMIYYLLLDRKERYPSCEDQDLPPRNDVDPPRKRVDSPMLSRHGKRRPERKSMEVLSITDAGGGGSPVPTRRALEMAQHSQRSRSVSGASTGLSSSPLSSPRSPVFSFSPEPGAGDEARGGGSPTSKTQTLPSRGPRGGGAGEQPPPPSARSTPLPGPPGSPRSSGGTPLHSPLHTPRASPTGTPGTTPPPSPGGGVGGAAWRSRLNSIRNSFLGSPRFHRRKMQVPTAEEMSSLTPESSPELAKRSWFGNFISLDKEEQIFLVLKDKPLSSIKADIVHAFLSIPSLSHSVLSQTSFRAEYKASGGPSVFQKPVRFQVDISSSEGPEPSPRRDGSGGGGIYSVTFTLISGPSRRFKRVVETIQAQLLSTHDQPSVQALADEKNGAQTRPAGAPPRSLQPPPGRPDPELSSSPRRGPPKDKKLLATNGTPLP

[9] = molecular target: Mitogen-activated protein kinase 15 (Homo sapiens) (UniProt Q8TD08)
[10] = molecular target: Mitogen-activated protein kinase 14 (Homo sapiens) (UniProt Q16539)
[11] = molecular target: Interferon-induced, double-stranded RNA-activated protein kinase (Homo sapiens) (UniProt P19525)
Chain of Interferon-induced, double-stranded RNA-activated protein kinase (Homo sapiens) (P19525 whole entry): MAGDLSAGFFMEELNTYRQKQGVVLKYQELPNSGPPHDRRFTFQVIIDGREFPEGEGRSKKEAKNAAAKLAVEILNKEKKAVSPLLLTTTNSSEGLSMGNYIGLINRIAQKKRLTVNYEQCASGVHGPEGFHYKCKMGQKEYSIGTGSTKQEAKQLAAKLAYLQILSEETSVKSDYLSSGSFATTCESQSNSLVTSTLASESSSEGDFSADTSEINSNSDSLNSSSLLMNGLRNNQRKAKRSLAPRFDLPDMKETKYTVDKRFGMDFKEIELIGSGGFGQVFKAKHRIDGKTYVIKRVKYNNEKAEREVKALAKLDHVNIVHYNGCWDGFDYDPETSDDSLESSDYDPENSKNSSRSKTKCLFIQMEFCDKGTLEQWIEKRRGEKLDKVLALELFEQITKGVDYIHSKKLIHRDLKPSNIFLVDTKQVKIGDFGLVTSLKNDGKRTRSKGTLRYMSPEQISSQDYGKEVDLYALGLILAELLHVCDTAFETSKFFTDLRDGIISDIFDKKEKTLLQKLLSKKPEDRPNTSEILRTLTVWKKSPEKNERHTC

[12] = molecular target: Ephrin type-A receptor 2 (Homo sapiens) (UniProt P29317)
[13] = molecular target: Death-associated protein kinase 2 (Homo sapiens) (UniProt Q9UIK4)
[14] = molecular target: Peripheral plasma membrane protein CASK (Homo sapiens) (UniProt O14936)
Chain of Peripheral plasma membrane protein CASK (Homo sapiens) (O14936 whole entry): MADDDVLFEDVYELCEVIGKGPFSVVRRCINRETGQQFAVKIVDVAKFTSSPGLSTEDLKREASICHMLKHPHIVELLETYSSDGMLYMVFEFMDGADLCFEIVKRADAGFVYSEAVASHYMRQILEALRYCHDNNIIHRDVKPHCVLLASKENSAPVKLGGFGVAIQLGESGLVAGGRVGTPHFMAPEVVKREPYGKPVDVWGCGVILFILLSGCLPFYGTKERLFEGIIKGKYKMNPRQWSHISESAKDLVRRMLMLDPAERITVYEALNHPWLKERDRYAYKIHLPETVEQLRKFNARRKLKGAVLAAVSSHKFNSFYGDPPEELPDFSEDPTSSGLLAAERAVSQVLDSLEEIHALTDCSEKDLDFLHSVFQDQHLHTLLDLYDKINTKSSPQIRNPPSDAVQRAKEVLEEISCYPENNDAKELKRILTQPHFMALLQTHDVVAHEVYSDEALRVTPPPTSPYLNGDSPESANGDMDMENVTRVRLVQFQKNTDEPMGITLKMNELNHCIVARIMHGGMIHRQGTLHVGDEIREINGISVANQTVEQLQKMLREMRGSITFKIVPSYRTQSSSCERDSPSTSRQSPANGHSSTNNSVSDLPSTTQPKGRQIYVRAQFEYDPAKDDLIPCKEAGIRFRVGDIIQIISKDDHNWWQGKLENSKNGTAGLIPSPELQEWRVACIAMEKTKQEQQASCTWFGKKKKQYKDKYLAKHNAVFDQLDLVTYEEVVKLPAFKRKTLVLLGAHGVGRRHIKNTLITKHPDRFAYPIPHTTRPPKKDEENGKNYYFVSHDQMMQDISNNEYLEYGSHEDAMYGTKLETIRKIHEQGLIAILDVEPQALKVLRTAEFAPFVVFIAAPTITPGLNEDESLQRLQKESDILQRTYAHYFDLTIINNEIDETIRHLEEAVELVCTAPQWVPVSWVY

[15] = test system: Receptor-type tyrosine-protein kinase FLT3 (Homo sapiens), P36888 [D835H]
[16] = molecular target: Mitogen-activated protein kinase kinase kinase 20 (Homo sapiens) (UniProt Q9NYL2)
Chain of Mitogen-activated protein kinase kinase kinase 20 (Homo sapiens) (Q9NYL2 2-800 limits assumed): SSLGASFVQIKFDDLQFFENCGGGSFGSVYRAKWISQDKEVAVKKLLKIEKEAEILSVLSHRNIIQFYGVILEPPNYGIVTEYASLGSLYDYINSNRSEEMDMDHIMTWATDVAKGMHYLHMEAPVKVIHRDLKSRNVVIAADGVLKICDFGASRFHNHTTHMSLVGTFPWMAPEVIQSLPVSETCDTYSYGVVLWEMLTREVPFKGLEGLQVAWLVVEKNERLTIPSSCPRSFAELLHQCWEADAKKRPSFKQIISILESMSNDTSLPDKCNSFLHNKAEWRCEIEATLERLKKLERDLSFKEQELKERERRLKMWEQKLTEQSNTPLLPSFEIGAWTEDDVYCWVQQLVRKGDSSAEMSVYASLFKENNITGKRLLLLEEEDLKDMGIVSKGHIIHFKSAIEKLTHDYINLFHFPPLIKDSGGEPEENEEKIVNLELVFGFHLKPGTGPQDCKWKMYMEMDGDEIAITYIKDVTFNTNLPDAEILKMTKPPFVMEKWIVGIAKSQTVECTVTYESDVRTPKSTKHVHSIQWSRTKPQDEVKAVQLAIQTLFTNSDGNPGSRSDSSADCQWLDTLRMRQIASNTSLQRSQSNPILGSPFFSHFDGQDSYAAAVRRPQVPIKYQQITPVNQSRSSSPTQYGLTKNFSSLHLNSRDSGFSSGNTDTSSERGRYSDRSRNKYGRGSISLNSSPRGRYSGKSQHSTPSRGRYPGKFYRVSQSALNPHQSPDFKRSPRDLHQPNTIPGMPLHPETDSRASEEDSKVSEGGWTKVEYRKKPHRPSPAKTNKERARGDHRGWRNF

Measured: residual activity

Chain of Leukocyte tyrosine kinase receptor (Homo sapiens) (P29376 whole entry): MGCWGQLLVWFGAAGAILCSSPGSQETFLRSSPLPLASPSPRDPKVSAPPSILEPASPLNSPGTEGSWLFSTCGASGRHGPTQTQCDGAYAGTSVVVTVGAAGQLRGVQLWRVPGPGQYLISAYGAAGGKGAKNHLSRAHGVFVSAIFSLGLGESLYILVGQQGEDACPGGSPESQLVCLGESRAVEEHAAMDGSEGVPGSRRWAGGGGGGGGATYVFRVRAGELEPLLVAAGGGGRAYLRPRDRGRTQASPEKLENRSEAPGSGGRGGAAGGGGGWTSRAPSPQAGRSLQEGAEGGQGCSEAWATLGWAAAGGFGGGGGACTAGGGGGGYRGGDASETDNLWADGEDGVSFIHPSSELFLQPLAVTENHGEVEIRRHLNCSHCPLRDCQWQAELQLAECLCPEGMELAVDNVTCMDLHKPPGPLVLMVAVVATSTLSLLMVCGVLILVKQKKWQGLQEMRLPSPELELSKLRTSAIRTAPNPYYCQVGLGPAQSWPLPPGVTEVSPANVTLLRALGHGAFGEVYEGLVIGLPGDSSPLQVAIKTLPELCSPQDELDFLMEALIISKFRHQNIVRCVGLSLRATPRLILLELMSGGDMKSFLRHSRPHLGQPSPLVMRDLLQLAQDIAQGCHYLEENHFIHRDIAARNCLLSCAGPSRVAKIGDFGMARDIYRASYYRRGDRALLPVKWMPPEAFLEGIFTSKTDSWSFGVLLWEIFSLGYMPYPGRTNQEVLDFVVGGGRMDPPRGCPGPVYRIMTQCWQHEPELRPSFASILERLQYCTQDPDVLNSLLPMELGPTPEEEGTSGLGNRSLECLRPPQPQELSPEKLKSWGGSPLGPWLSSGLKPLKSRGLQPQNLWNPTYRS
Chain of Calcium/calmodulin-dependent protein kinase type 1B (Homo sapiens) (Q6P2M8 whole entry): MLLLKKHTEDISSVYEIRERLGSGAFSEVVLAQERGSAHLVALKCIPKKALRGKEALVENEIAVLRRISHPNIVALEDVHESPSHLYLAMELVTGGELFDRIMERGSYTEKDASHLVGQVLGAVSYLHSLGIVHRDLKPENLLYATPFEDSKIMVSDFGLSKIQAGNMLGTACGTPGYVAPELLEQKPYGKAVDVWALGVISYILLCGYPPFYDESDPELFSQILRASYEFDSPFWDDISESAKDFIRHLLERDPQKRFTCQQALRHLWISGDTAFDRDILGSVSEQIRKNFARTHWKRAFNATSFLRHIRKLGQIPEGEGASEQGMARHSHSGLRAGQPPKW
Chain of Serine/threonine-protein kinase 10 (Homo sapiens) (O94804 whole entry, looked up): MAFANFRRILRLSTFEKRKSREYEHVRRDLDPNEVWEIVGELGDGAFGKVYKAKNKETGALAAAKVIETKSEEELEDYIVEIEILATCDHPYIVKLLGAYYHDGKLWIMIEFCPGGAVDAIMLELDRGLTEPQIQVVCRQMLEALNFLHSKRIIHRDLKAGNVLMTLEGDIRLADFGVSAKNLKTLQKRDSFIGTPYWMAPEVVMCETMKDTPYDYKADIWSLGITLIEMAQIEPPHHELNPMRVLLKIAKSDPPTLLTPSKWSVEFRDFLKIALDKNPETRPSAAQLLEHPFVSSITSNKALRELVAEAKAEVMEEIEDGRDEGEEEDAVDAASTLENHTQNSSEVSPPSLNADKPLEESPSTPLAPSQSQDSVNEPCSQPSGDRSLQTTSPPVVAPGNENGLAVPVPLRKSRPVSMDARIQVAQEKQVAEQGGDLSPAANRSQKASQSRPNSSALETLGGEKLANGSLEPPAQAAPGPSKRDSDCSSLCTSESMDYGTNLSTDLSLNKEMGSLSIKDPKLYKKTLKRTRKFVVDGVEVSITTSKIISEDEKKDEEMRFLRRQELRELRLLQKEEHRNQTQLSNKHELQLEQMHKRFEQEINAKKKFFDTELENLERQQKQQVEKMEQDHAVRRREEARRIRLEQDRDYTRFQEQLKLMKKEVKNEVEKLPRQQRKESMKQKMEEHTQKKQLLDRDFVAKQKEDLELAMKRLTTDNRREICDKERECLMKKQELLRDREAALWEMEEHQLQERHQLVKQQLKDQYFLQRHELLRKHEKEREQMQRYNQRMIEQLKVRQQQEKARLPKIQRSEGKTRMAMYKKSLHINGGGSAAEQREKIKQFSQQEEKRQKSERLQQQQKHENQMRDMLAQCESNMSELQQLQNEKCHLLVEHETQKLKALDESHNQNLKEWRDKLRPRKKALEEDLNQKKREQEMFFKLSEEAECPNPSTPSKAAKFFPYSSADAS

CN(C)C(=O)Cn1cc(-c2nc(C3(c4ccc(-c5cnc(N)nc5)cc4)CC3)no2)cn1 [BI 0153]
inactive: [1] 100% | [2] 77% | [3] 90% | [4] 88% | [5] 100% | [6] 87% | [7] 100% | [8] 93% | [9] 96% | [10] 100% | [11] 100% | [12] 89% | [13] 86% | [14] 76% | [15] 93% | [16] 92%

CN(C)C(=O)Cn1cc(-c2nc([C@@](C)(c3ccc(-c4cnc(N)nc4)cc3)C3CC3)no2)cn1 [BI 665915]
inactive: [1] 89% | [2] 88% | [3] 89% | [4] 82% | [5] 96% | [6] 94% | [7] 95% | [8] 98% | [9] 91% | [10] 90% | [11] 100% | [12] 100% | [13] 100% | [14] 82% | [15] 86% | [16] 80%
